According to ChEMBL document CHEMBL1821674, “Design, synthesis and biological evaluation of novel nitroaromatic compounds as potent glutathione reductase inhibitors” (Bioorg Med Chem Lett, 2011):

Key:
[1] = molecular target: T1, Glutathione reductase, mitochondrial (Homo sapiens, UniProt P00390); assay: Inhibition of human erythrocyte Glutathione reductase
T1 sequence (P00390 whole entry): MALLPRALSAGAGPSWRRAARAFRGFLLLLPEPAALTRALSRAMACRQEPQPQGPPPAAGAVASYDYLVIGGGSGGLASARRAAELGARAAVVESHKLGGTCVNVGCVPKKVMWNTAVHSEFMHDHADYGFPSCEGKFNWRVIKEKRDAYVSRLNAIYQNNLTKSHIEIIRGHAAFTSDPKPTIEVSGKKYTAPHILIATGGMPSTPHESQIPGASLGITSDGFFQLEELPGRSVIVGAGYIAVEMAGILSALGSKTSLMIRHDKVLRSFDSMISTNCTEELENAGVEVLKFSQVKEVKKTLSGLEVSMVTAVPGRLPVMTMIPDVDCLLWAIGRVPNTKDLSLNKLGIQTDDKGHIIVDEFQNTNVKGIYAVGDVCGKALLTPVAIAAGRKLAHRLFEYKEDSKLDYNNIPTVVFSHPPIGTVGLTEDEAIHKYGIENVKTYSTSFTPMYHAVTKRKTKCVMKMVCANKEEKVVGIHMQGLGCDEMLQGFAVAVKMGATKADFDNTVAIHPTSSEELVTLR

[2] = molecular target: T1, Glutathione reductase, mitochondrial; assay: Non-Competitive inhibition of human erythrocyte Glutathione reductase using GSSG substrate by Lineweaver-Burk plot analysis
[3] = molecular target: T1, Glutathione reductase, mitochondrial

| IC50 [1] [µM] | Ki [2] [µM] | Structure (SMILES) | Ki [3] [µM] |
| --- | --- | --- | --- |
| 15.4 | 4.16 | CC(C)(C)OC(=O)N[C@@H](CCCCNC(=O)OCc1ccccc1Cl)C(=O)Oc1ccc([N+](=O)[O-])cc1 |  |
| 13.3 |  | CC[C@H](CO)NCc1ccc([N+](=O)[O-])cc1 | 4.57 |
| 0.344 |  | O=C(O)CC[C@H](NC(=O)c1ccc([N+](=O)[O-])cc1)C(=O)O | 0.211 |
| 53.7 |  | N[C@@H](CCC(=O)O)C(=O)O [GLUTAMIC ACID] | 42.7 |

| Structure (SMILES) | IC50 [1] [µM] | Ki [2] [µM] | Ki [3] [µM] |
| --- | --- | --- | --- |
| NCCCC[C@H](N)C(=O)O [LYSINE] | 61.2 |  | 54.6 |
| COC(=O)C1=C(C)NC(C)=C(C(=O)OC)C1c1ccccc1[N+](=O)[O-] [NIFEDIPINE] | 23.4 |  | 17.4 |
| O=[N+]([O-])c1ccccc1 [NITROBENZENE] | 547 |  | 274 |
